Results taken from patent publication US7098241B2, “Thiophene hydroxamic acid derivatives” (Hoffmann-La Roche Inc., priority 2002, dated 2006).

Experiments:
[1] = system: acetylated histone H3 in HT29 human colon carcinoma xenografts; assay: Acetylation levels of histone H3 in HT29 tumor bearing mice; assay type: in vivo, NMRI nude mice; conditions: for acetylated H3, BLU/1 μg histone protein: HT29 xenograft, mean; for acetylated H3, BLU % (BLU percent versus vehicle control): vehicle = 100
Experimental: Determination of Acetylation Levels of Histone H3 in Tumor Bearing Mice
The HT-29 cell line is derived from a human colon adenocarcinoma and was obtained from ATCC and kept in an in house working cell bank for pharmacological use. Cells were cultured in RPMI1640/2 mM L-Glutamin medium supplemented with 10% heat inactivated FCS. For inoculation HT29 tumor cells are removed (Trypsin-EDTA, 50 U/mg) from culture flasks and transferred into culture medium (RPMI 1640, 10% heat inactivated FCS), washed and resuspended in sterile PBS to achieve a final cell concentration of 5×10^6/100 μl. Cell suspension was carefully mixed by regular shaking to avoid cell aggregation and filled into a 1.0 ml graded syringe. After s.c. inoculation of HT29 human colon carcinoma cells (5×10^6/100 μl) in the right upper quarter of ventral breast region of NMRI nude mice, animals were inspected 2–3 times per week until xenografts reached a volume of roughly 1000 mm^3 or more, sufficient for analysis of histone acetylation. After single i.p. application of 400 mg/kg of the compound of example 1, formulated as microsuspension in 7.5% modified gelatin with 0.22% NaCl solution, the respective group of animals was sacrificed 3, 6, 12, and 24 h after dosing. Tumors were excised for analysis of acetylated histones (H3). An aliquot of tumors (ca. 200 mg) was analyzed for acetylated H3. Histones were extracted from xenografts by standardized methods (Richon, V. M., et al., PNAS 97 (2000) 10014–10019; Yoshida, M., et al., J. Biol. Chem. 265 (1990) 17174–17179), separated and acetylated H3 identified by Slot Blot and Immuno Blot techniques (SB-IB, Bio-Rad Laboratories GmbH, Munich, Germany) using anti-acetyled-H3 Pabs (UpState Biotechnology, Cat. #06-599). Histone protein was determined (Pierce Kit) and adjusted to 3 mg/ml to apply a standardized amount of 1 μg histone protein for H3 analysis in SB-IB. Quantification of acetylated H3 was performed by ECL (Enhanced Chemo Luminescence, Amersham Pharmacia, Hybond™ ECL™ Nitrocellulose membrane) measuring bioluminescence with the Lumi-Imager instrument (Roche Diagnostics). Data are expressed either as BLU/μg histone protein (BLU=Bio-Luminescence-Units), or as BLU percent versus vehicle control. After single administration of the compound of example 1, there was a marked and significant increase of acetylated H3 lasting for up to 24 h compared to the vehicle groups. The maximum acetylation was attained 6 h after dosing. A tabulated summary of the mean values and percentual changes are depicted below.

recombinant HDAC-1 = target: T1, recombinant HDAC-1 (Homo sapiens, UniProt Q13547); assay: HDAC biochemical quench assay; conditions: recombinant HDAC-1 purified from HEK 293 cells, 1 uM peptide substrate, 90 min at room temperature
T1 construct: made in house; host or cells: HEK 293 cells
From the text: The function of histone deacetylase (HDAC) is the deacetylation of lysines in e.g. histone H4. A peptide of 17 amino acids derived from histone H4 was labeled with TAMRA at the C-terminus and QSY-7 at the N-terminus and was used as a substrate (TAMRA-first17 aa of histone H4-QSY7). Following deacetylation by HDAC, the enzyme Lys C is able to cleave the peptide after lysine. […] Inhibition of HDAC by compounds results in low signals because Lys C could not cleave the substrate and the quench effect persists.
For dose response curves, 10 concentrations were diluted 1:3 starting at 30 uM. 10 ul compound dilution were put into each well of a 384 well plate. 10 ul HDAC were added (recombinant HDAC-1 purified from HEK 293 cells; enzyme activity has to be assessed for each preparation). 10 ul peptide substrate was added (1 uM final concentration, derived from 1 mM stock solution diluted 1:1000 in test buffer). After 90 min incubation at room temperature, the reaction was stopped by addition of 20 ul test buffer including 3 ug/ml Lys C and 0.075% SDS. After overnight incubation the fluorescence signal of TAMRA was measured (Victor 2 from Wallac, absorption 544 nm, emission 590 nm). The O.D. of DMSO-treated control wells is 100%, the % inhibition of compound treated wells is calculated in relation to 100%. Based on 10 concentrations a IC50 curve is generated by using XL.fit3.
Test buffer used: a mixture of 10 mM Hepes pH8, 10 mM NaCl, 10% Glycerol, 0.005% Triton X100, 0.1 mM EDTA, 0.1 mM TCEP. As plates were used 384 well plates (black, Greiner, 781077).

[2] = system: HCT116 tumor cells (human colon adenocarcinoma) xenograft; assay: Antitumor activity in a HCT116 xenograft model; assay type: in vivo, NMRI nude male mice; conditions: 21 dosing days over 29 days
Experimental: Determination of Antitumor Activity in a HCT116 Xenograft Model
The HCT116 cell line (NCI line) is derived from a human colon adenocarcinoma and kept in an in house working cell bank. Cells were cultured in RPMI1640/2 mM L-glutamin medium supplemented with 10% heat inactivated FCS. For inoculation HCT116 tumor cells are removed (trypsin-EDTA, 50 U/mg) from culture flasks and transferred into culture medium (RPMI 1640, 10% heat inactivated FCS), washed and resuspended in sterile PBS to achieve a final cell concentration of 5×10^6/100 μl. Cell suspension was carefully mixed by regular shaking to avoid cell aggregation and filled into a 1.0 ml graded syringe. Tumor cell inoculation was performed under light anesthesia (Ethrane.) in the upper ventral quarter of right flank, i.e. between axilla of forelegs and midline region of NMRI nude male mice. In this site 5×10^6 HCT116 tumor cells were s.c. discharged in a volume of 100 μl PBS. All procedures were carried out under SPF conditions wearing appropriate clothings. After s.c. inoculation of tumor cells, measurable tumors developed in all animals. Mice were staged and randomized on day 10 according to the primary tumor dimensions. 21 days daily oral dosing was carried out using the compound of example 1 and compound 3 of WO 93/07148, WO 95/31977, U.S. Pat. No. 5,369,108 ('108 patent) as test article. 75 male NMRI nude mice were divided into 5 study groups. Each group consisted of 15 male animals. The individual groups were given the test article, formulated as microsuspensions in 7.5% modified gelatin with 0.22% NaCl solution, once daily by oral route over 29 days according to the following treatment scheme: 3 days treatment, 2 days drug holiday, 5 days treatment, 2 days drug holiday, 5 days treatment, 2 days drug holiday, 5 days treatment, 2 days drug holiday, 3 days treatment. The application volume was 10 ml/kg. The oral doses chosen were 50, 100, and 200 mg/kg of the compound of example 1 and 200 mg/kg of compound 3 of the '108 patent.

[3] = 3 h after single i.p. 400 mg/kg
[4] = 6 h after single i.p. 400 mg/kg
[5] = 12 h after single i.p. 400 mg/kg
[6] = 24 h after single i.p. 400 mg/kg

T1 sequence (Q13547 whole entry, species assumed): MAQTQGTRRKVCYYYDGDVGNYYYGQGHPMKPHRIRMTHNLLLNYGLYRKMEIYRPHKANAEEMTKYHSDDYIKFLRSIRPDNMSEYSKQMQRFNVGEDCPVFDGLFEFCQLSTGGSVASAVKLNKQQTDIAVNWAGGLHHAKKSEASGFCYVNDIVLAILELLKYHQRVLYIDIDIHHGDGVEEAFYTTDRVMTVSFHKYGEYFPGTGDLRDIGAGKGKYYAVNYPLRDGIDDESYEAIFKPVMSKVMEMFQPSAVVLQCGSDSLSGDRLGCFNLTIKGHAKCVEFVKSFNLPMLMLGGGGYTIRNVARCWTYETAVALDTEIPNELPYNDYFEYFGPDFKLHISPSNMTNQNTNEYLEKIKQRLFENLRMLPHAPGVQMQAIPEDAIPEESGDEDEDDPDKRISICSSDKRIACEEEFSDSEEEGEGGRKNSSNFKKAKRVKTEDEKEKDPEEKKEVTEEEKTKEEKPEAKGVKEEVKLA

With `C[C@@H](NC(=O)c1ccc(C(=O)NO)s1)c1ccccc1` [Example 1, (R)-thiophene-2,5-dicarboxylic acid 2-hydroxyamide 5-[(1-phenyl-ethyl)-amide]] the “acetylated H3, BLU/1 μg histone protein” value [1, 3] was 57824 BLU/1 μg, the “acetylated H3, BLU % (BLU percent versus vehicle control)” value [1, 3] was 466% and the “acetylated H3, BLU/1 μg histone protein” value [1, 4] was 98717 BLU/1 μg. The “acetylated H3, BLU % (BLU percent versus vehicle control)” value [1, 4] was 502%, the “acetylated H3, BLU/1 μg histone protein” value [1, 5] was 75378 BLU/1 μg and the “acetylated H3, BLU % (BLU percent versus vehicle control)” value [1, 5] was 447%. For the same molecule, the “acetylated H3, BLU/1 μg histone protein” value [1, 6] was 40965 BLU/1 μg, the “acetylated H3, BLU % (BLU percent versus vehicle control)” value [1, 6] was 269% and the “duration of marked and significant increase of acetylated H3 compared to vehicle” value ([1]; single i.p. 400 mg/kg) was “up to 24 h”. The “time of maximum acetylation after dosing” value ([1]; single i.p. 400 mg/kg) was 6 h, the IC50 (recombinant HDAC-1) was 3.4 nM and the tumor weight inhibition ([2]; 50 mg/kg oral once daily) was 40%. The tumor weight inhibition ([2]; 100 mg/kg oral once daily) was 49% and the tumor weight inhibition ([2]; 200 mg/kg oral once daily) was 87%.
